In PMC3776562 (Journal of the American Chemical Society, 2013):

Columns and labels:
[1] = system: folded Bcl-2 members; details: cited from earlier work
Description: The binding of BH3 regions to folded Bcl-2 family members is, due to their important physiological role and the large number of homologues, one of the most heavily studied coupled folding and binding reactions, particularly with respect to equilibrium binding constants obtained and structures solved.[21],[29] BH3 peptides have potential therapeutic value and have been the focus for the design of peptide-based mimics, including hydrocarbon staples,[42] α/β-peptides,[43] miniature proteins[44] and photoswitchable peptides.[45] To understand the general principles of binding, knowledge of kinetic ...

[2] = biological target: T1, Mcl-1 (Mus musculus, UniProt P97287); assay: Urea dependence of association rate constant; type: binding
T1 construct: with 151 N-terminal residues and 23 C-terminal residues removed; hexahistidine tag with thrombin cleavage site (N, cleaved yes); made in house; host or cells: Escherichia coli C41 (DE3)
Description: Urea is a denaturing cosolvent used in protein folding studies to energetically disfavor structured states. […] However, increasing urea concentrations also makes solutions more viscous. […] Further, the natural log of k+ against concentration of urea is linear, with a gradient of m = 0.55 (±0.02) M^–1 (Figure 3D).
(§1) Association kinetics were monitored by following the change in intrinsic fluorescence on an SX18 or SX20 stopped-flow spectrometer (Applied Photophysics). All PUMA solutions were incubated at 25 °C for 30 min before use to allow for dissociation of oligomers. Because of mixing artifacts, data collected before the first 5 ms were removed before fitting. Proteins were mixed at near equal (1–0.25 μM) concentrations. Association kinetics were analyzed using eq 3([51]) that describes irreversible association of two proteins at initial concentrations [A]0 and [B]0: [drawing 3] 3 where F is fluorescence, F0 the initial fluorescence, ΔF is the fluorescence amplitude of the reaction, [A]0 is the initial concentration of one protein, [B]0 the other, x = [B]0/[A]0, k+ is the association rate constant, and t is time. Where repeat measurements were made, standard errors are shown as error bars. Errors were propagated using standard equations.

[3] = biological target: T1, Mcl-1; assay: Fluorescence change on complex formation with Mcl-1; details: binding to Mcl-1; intrinsic tryptophan fluorescence
Procedure: (§2) Intrinsic tryptophan fluorescence was also used to probe the structural changes in these proteins upon association.
(§3) Figure S4. Fluorescence spectra of Mcl-1 and PUMA peptide show Mcl-1 is folded, PUMA is unfolded and binding occurs. […]
(§4) fluorescence spectrum characteristic of buried tryptophans whereas PUMA (blue) […]
(§5) An increase in fluorescence is seen upon mixing 1 µM: 1 µM of Mcl-1 and PUMA peptide. 1:1 complex (black solid line) […]
(§6) a greater signal than the spectrum predicted for no interaction (dashed line), which is the sum of the PUMA alone (blue) and Mcl-1 alone (magenta) spectra.

[4] = PUMA peptide oligomerization (CD, size-exclusion chromatography, SDS-PAGE); type: physicochemical
Description: (§7) CD scans were taken in an Applied Photophysics Chirascan, using 10 to 2 mm path length cuvettes. Percentage helicity calculated using the mean residue ellipticity at 222 nm.[24]
Figure S3. PUMA peptide undergoes reversible oligomerization to an α-helical structure. (a) The Circular dichroism spectra of the PUMA peptide becomes more α-helical at higher concentrations, consistent with the formation of an α-helical oligomer.
(b) Oligomers are visible on denaturing SDS-PAGE gel of PUMA peptide at ~10-100 µM concentrations. White numbers refer to elution volumes from FPLC trace (c). (c) […]
PUMA oligomers (i), for comparison a trace for a similar size monomeric peptide is […]
-200 Monomeric BH3 peptide
(1 picture or pasted object on this page, not shown here)

[5] = biological target: T1, Mcl-1; assay: Viscosity dependence of association rate constant (glucose); type: binding; details: glucose as viscogen; relative rate constant vs relative viscosity
Procedure: We measured k+ in varying concentrations of the small-molecule viscogen glucose and the observed k+ did indeed match the predicted rate constant (k0η0/η) (Figure 2B) and produce the standard viscosity plot[37] (k0/k+ vs η/η0) with the expected slope for a ‘diffusion-limited’ reaction, ∼1 (Figure 2C).
as §1

[6] = Intrinsic tryptophan fluorescence emission spectra; type: physicochemical; details: excitation at 280 nm; unbound
Procedure: as §2, §3, §4, §5, §6

[7] = Circular dichroism, unbound PUMA helicity; type: physicochemical; details: CD
Procedure: as §7
Figure S9. Changes in helicity of PUMA peptide with solvent and temperature.
Due to the oligomerization of the PUMA peptide circular dichroism (CD) was recorded at the low concentration of 1 µM with a 10 mm pathlength cuvette to maximize signal.
Errors due to buffer subtraction and high absorbances prevent quantitative analysis of these spectra. However, each individual figure was recorded on the same day so qualitative conclusions can be drawn. (a) The helicity of the PUMA peptide is highly temperature dependent, with lower temperatures favoring helical conformations. (b) Increasing concentration of the denaturant urea results in the disfavoring of helical […]
significant change in CD signal.

[8] = biological target: T1, Mcl-1; assay: Temperature dependence of association rate constant; type: binding; details: stopped-flow fluorescence
Procedure: as §1

[9] = biological target: T1, Mcl-1; assay: Circular dichroism of 1:1 complex with Mcl-1; type: binding; details: CD
Description: as §7

[10] = biological target: T1, Mcl-1; assay: Ionic strength dependence of association rate constant (fit to eq 4); type: binding
Procedure: Unless otherwise stated, experiments were carried out in 50 mM sodium phosphate, pH 7.0. For the ionic strength dependence of association protein and peptide were exchanged to the low ionic strength 10 mM MOPS, pH 7.0, buffer (I = 0.004 M) and then ionic strength was controlled using [NaCl]. NaOH was titrated to maintain neutral pH upon addition of NaCl.
as §1, with “equations. […]” for “equations.”

[11] = biological target: T1, Mcl-1; assay: Stopped-flow fluorescence association kinetics of PUMA constructs with Mcl-1; type: binding; details: chemical denaturants, lowering total protein concentration, altering temperature
Procedure: The synthetic genes for truncated mouse Mcl-1 (UniProt P97287) with 151 N-terminal residues and 23 C-terminal residues removed (Figure S2C) and GB1-PUMA (Figure S2D) were obtained from Genscript. The genes were inserted into a modified version of the pRSET A vector that encodes an N-terminal hexahistidine tag with a thrombin cleavage site between the tag and the protein. Due to the cleavage of thrombin, a GS is added at the N-termini of Mcl-1. Protein expression was carried out in Escherichia coli C41 (DE3) grown in LB media at 37 °C. […] Identity was confirmed using mass spectrometry, the concentration of GB1-PUMA was determined by the method of Gill von Hippel,[36] and the concentration of Mcl-1 was determined using amino acid analysis.
Mouse PUMA peptide, residues 128–161 (Uniprot Q99ML1) with the M144I mutation used in the NMR structure 2ROC[26], together with N-terminal acetylation and C-terminal amidation, was synthesized by Selleck Chemicals. […] Peptide concentration was determined using amino acid analysis and identity confirmed using mass spectrometry. […]
Association kinetics were monitored by following the change in intrinsic fluorescence on an SX18 or SX20 stopped-flow spectrometer (Applied Photophysics). […] Association kinetics were analyzed using eq 3([51]) that describes irreversible association of two proteins at initial concentrations [A]0 and [B]0: [drawing 3] […]

[12] = biological target: truncated mouse Mcl-1 (induced myeloid leukemia cell differentiation protein), 151 N-terminal and 23 C-terminal residues removed (mouse) (UniProt P97287); assay: stopped-flow fluorescence kinetics; intrinsic fluorescence; protein and peptide mixed at near equal concentrations (1-0.25 uM), also pseudo-first-order conditions; 50 mM sodium phosphate, pH 7.0; fit to irreversible association (eq 3)
[13] = biological target: T2, truncated mouse Mcl-1 (induced myeloid leukemia cell differentiation protein), 151 N-terminal and 23 … (mouse, UniProt P97287 152-308); assay: fluorescence kinetics after manual mixing; Mcl-1 and PUMA solutions manually mixed at nanomolar concentrations, fluorescence followed; fit to a model with association and dissociation; details: both partners purified
[14] = biological target: the molecule itself; assay: SEC + other: concentration dependent circular dichroism and denaturing SDS-PAGE; PUMA peptide alone at concentrations above 2 uM; reversible oligomerization
[15] = biological target: T2, truncated mouse Mcl-1 (induced myeloid …); assay: stopped-flow fluorescence kinetics; intrinsic fluorescence; protein and peptide mixed at near equal concentrations (1-0.25 uM), also pseudo-first-order conditions; 50 mM sodium phosphate, pH 7.0; fit to irreversible association (eq 3); details: both partners purified
[16] = Mcl-1 urea unfolding by intrinsic tryptophan fluorescence; type: physicochemical, mouse; details: 1 µM Mcl-1, 25 °C, 50 mM PO4 pH 7.0, excitation 280 nm, emission 360 nm
Procedure: Figure S8. Mcl-1 remains folded up to 3.5 M urea. Mcl-1 fraction folded calculated
from the intrinsic tryptophan fluorescence of Mcl-1 (1 µM Mcl-1, 25 °C, 50 mM PO 4
pH 7.0, excitation at 280 nm, 10 nm pathlength, emission at 360 nm, 5nm pathlength).

Ac-VEEEEWAREIGAQLRRIADDLNAQYERRRQEEQH-NH2 [PUMA peptide]
affinity for folded Bcl-2 members relative to other BH3 peptides [1]: greater affinity than most other BH3 peptides
effect of urea on k+ ([2]; increasing urea, compared with prediction from viscosity k0η0/η): decreased by significantly more than what would be expected due to viscosity effects alone
m, gradient of ln(k+) against urea concentration ([2]; urea 0 upward, stopped-flow): 0.55 (±0.02) M^–1
overall fluorescence change upon complex formation [3]: significant increase in overall fluorescence upon complex formation
concentration above which reversible oligomerization to highly α-helical structure occurs ([4]; concentration dependent CD, size-exclusion chromatography and denaturing SDS-PAGE): above 2 μM
concentration at which oligomers are visible on gel ([4]; denaturing SDS-PAGE): 10 to 100 µM
slope of viscosity plot (k0/k+ vs η/η0) [5]: 1.13 ± 0.02
fluorescence emission maximum [6]: 360 nm
change in helicity with temperature ([7]; 1 µM, 10 mm pathlength cuvette, 15–60 °C, qualitative): less helical at higher temperatures
change in intrinsic helicity with ionic strength and urea ([7]; 1 µM, 10 mm pathlength cuvette, urea 0–3 M, I 4–214 mM, qualitative): showed little ionic strength dependence but was reduced in the presence of urea
residual helicity in the unbound state ([7]; mean residue ellipticity at 222 nm, 50 mM PO4, pH 7.0, 25 °C): ~20%
effect of temperature on association [8]: An increase in temperature accelerates association
helicity on binding Mcl-1 [9]: increased α-helicity relative to the two proteins in isolation
rate constant in the absence of long-range electrostatics k+basal ([10]; 10 mM MOPS, pH 7.0 (I = 0.004 M), ionic strength controlled with NaCl, fit to eq 4, a set to 6 Å): 6 (±1) × 10^5 M^–1 s^–1
kon ([10]; read-out: association rate constant k+ at high ionic strength): 100000 to 1e+06 M⁻¹ s⁻¹
dissociation of preformed Mcl-1 PUMA complex [11]: No solvent conditions could be found where preformed Mcl-1 PUMA complex could be observed to dissociate without unfolding the structured Mcl-1

GB1-PUMA: 90 aa chain containing a soluble GB1 domain fused to the N-terminus of the 34 aa PUMA peptide (from UniProt Q99ML1 128-161)
kon [12]: 1.29e+07 M⁻¹ s⁻¹

Ac-VEEEEWAREIGAQLRRIADDLNAQYERRRQEEQH-NH2 (peptide, UniProt Q99ML1 128-161, looked up) [Mouse PUMA peptide, residues 128-161, M144I, N-terminal acetylation and C-terminal amidation]
Kd [13]: 0.1 nM
koff [13]: 0.0016 s⁻¹
binding result [14]: binds
kon [15]: 1.59e+07 M⁻¹ s⁻¹

B1: Mcl-1: truncated mouse Mcl-1 (UniProt P97287) with 151 N-terminal residues and 23 C-terminal residues removed; GS added at N-terminus (protein)
chain: GSEDDLYRQSLEIISRYLREQATGSKDSKPLGEAGAAGRRALETLRRVGDGVQRNHETAFQGMLRKLDIKNEGDVKSFSRVMVHVFKDGVTNWGRIVTLISFGAFVAKHLKSVNQESFIEPLAETITDVLVRTKRDWLVKQRGWDGFVEFFHVQDLEGG
modifications: left off: His6, N-terminal, cleaved
notes: truncated mouse Mcl-1 (UniProt P97287) with 151 N-terminal residues and 23 C-terminal residues removed; GS added at N-terminus
fluorescence emission maximum [6]: 330 nm
urea concentration up to which protein remains folded [16]: 3.5 M
